Experimental data: patent US12233044B2, “Cannabidiol and chitosan compositions and methods of using the same” (priority 2017, dated 2025)
Values joined by “and” are separate entries in the source; they are usually repeats but may differ in a detail not shown here. Identical values can stand only once.

Experiments:
[1] = Guinea pig induced dyslipidemia model, body weight gain; format: in vivo
Description: The objective of this research was to examine the cholesterol blood levels of guinea pigs, fed ad libitum a high-level fat diet rich in lauric and myristic acids alone or in combination with various formulations.
“Day 0” was initiation of the Study period, animals received regular guinea pig diet. Day 3 the animals were subjected to blood withdrawal and subsequently the first day of supplying the fattening diet. On day 11 chitosan diet was administered to the relevant group. On day 24 CBD diet and CBD chitosan diet were administered until day 27.
Determination of individual body weights of animals was conducted once weekly during the entire study.

[2] = test system: Triglyceride levels in the serum; assay: Guinea pig induced dyslipidemia model, serum triglycerides; format: in vivo
Description: The blood cholesterol and triglycerides were examined in male guinea pigs, following an oral administration of the various formulations in correlation to the Controlled group.
Measurement of cholesterol, and Triglyceride levels in the serum were performed following a 7-10 day of exposure to the different diets.
Day 3 all animals; Day 11 all animals; Day 24 all animals; Day 27 CBD, CNTL-fattening and CBD-chitosan group.
The blood collection tubes (BD 367955) were specialized for serum separation, containing a clot activator and a gel which separates the cell content (pellet) from the serum (supernatant) after centrifugation. Blood samples of ˜0.5 mL/animal were collected into the pre-marked tubes (study code, animal number and date). At all times blood was collected under anesthesia: Ketamine 20-40 mg/kg & Diazepam 1-2 mg/kg IM. Blood collection of all animals was performed via the periorbital eye venous plexus puncture.
Blood samples were left at room temperature for at least 45 minutes, and subsequently centrifuged ([…], 1790 g, 10 min/RT) for serum separation and left in the specialized tubes with the gel partitioning the separated serum and cell content. The samples were transferred as such to AML.
Following serum separation, the samples were kept at 2-8° C. until transferred to AML, for blood lipid profile analysis (cholesterol, LDL, HDL and Triglyceride levels). Sample transfer was via wet ice packed in Styrofoam boxes and transferred within 1-2 hours from blood separation.

SMILES: C=C(C)[C@@H]1CCC(C)=C[C@H]1c1c(O)cc(CCCCC)cc1O [CBD, Cannabidiol]
- Change in Weight by group, Mean ([1]; change in weight during treatment, group mean, N 15): 58.8
- Mean difference, Change in Weight by group ([1]; contrast CBD - CHIT): 34.5
- Mean difference, Change in Weight by group ([1]; contrast CNTL - CBD): 6.0
- Mean difference, DELTA WEIGHT second phase ([1]; contrast CNTL - CBD): 2.8
- DELTA WEIGHT, Second phase Group ([1]; individual animals, second phase treatment): 108.00 and 133.00 and 157.00 and 130.00
- DELTA WEIGHT by Second phase Group, Mean ([1]; study initiation to after second phase treatment, group mean): 132.0
- Mean difference, TG delta 27 D to 10 D ([2]; contrast CNTL - CBD CNTL): 28.3
- TG delta 27 D to 10 D by group second phase, Mean ([2]; group mean): −33.0
- Triglycerides lowering effect (in words) ([2]; guinea pig, in vivo): lower TG values
- Difference in triglycerides versus CNTL group ([2]; significance): not significant
